Measured values as given in patent US20120207729A1, “SUBSTITUTED BENZOAZOLE PDE4 INHIBITORS FOR TREATING PULMONARY AND CARDIOVASCULAR DISORDERS” (DECODE GENETICS EHF, priority 2007, published 2012).

Key:
human PDE4B = human PDE4B (Homo sapiens, UniProt Q07343); assay: In-vitro real-time enzyme-coupled spectrophotometric assay for PDE4 enzymes; format: biochemical; settings: NADH-coupled assay, absorbance at 340 nm, read-out: IC50 for human PDE4B isozyme
Protocol: (§1) In-vitro assay for PDE4 enzymes. The in-vitro activity of PDE4 enzymes and the in-vitro potency of therapeutic agents described in the present invention was measured using a real-time, enzyme-coupled spectrophotometric assay. By using three different coupling enzymes, the product of the PDE4 reaction is coupled to the oxidation of the reduced form β-nicotinamide adenine dinucleotide (NADH), which dissipation can be monitored spectrophotmetrically at […].
(§2) Assay description. Buffer A containing 50 mM Tris, pH 8.0, 16 mM MgCl2 and 80 mM KCl is prepared and stored at room temperature. Buffer B containing 50 mM Tris, pH 8.0 is prepared and stored at room temperature. Stock solutions of the following reagents are prepared in Buffer B and stored at −20° C.: Adenosine-5′-triphosphate (ATP), cyclic adenosine-5′-monophosphate (cAMP), phosphoenolpyruvate (PEP) and NADH. An assay mix is prepared by mixing Buffer A, […] (TCEP), ATP, PEP, NADH, myokinase (MK), pyruvate kinase (PK), lactate dehydroganese (LDH) and PDE4 to a final volume of 20 mL, which is enough for a single 96-well assay plate. Assay mix (180 μL) and test article (10 μL) in 1:1 DMSO/H2O mixture is pre-incubated at room temperature for 10 min. The enzymatic reaction is initiated by addition of cAMP (10 μL). Final concentration of all components in the assay (200 μL/well) are as follows: 10 mM MgCl2, 50 mM KCl, 5 mM TCEP, 2.5% DMSO, 0.4 mM NADH, 1 mM PEP, 0.04 mM ATP, 5 units MK, 1 unit PK, 1 unit LDH and appropriate amount of PDE4. Reaction progress curves are monitored in a plate reader capable of measuring light absorbance at 340 nm. A decrease in light absorbance at 340 nm is due to oxidation of NADH. Positive controls containing no test article and negative controls containing no test article and no cAMP are included on every assay plate. Reaction rates are determined from the slopes of the linear portions of the progress curves. All data is percent normalized with respect to controls and presented as percent inhibition. Compounds BB-01, BB-02, BB-03, BB-04, BB-05, BB-08, BB-09 gave IC50<5 uM for human PDE4D and PDE4B isozymes.

human PDE4D = human PDE4D (Homo sapiens, UniProt Q08499); assay: as above; format: biochemical; settings: NADH-coupled assay, absorbance at 340 nm, read-out: IC50 for human PDE4D isozyme
Protocol: as §1, §2

Sequence of human PDE4D (Q08499 whole entry): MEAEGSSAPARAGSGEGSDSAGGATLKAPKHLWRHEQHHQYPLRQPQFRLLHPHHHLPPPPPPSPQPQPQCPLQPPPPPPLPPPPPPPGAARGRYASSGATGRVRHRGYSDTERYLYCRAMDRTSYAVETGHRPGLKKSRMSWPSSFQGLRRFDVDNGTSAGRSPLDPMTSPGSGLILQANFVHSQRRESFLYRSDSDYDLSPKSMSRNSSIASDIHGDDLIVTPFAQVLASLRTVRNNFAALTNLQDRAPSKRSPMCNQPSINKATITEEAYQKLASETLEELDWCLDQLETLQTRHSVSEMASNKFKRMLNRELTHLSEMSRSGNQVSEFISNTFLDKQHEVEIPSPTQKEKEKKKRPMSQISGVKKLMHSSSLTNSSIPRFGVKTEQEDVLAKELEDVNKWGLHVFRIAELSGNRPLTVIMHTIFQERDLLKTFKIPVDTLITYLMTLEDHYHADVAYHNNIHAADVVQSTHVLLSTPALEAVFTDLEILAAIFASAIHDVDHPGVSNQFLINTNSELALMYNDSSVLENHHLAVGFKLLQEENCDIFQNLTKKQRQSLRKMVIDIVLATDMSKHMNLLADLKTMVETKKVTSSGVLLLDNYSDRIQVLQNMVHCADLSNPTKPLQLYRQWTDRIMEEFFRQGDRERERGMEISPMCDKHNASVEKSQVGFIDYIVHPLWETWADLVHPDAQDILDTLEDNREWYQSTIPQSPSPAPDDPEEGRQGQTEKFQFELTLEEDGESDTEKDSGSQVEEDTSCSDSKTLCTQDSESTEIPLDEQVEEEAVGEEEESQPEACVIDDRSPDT
Sequence of human PDE4B (Q07343 whole entry): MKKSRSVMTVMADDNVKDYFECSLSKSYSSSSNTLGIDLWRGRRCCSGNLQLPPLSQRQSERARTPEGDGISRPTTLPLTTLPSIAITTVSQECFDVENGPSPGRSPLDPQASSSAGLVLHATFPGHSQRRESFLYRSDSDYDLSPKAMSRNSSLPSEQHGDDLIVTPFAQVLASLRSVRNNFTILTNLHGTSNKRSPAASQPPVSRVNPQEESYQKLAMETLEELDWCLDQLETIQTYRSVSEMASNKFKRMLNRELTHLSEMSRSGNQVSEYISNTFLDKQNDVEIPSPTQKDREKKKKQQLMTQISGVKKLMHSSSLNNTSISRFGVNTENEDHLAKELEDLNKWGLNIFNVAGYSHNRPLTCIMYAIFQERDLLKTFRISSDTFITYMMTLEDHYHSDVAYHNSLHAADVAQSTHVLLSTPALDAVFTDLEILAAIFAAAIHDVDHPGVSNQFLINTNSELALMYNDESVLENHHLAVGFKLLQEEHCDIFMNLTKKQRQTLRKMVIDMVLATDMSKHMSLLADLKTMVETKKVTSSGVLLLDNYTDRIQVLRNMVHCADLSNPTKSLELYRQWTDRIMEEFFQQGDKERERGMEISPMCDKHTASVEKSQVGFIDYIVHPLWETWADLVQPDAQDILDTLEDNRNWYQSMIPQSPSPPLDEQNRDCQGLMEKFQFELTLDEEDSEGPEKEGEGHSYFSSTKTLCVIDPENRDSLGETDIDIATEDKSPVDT

Structure (SMILES)	IC50 (human PDE4B) [µM]	IC50 (human PDE4D) [µM]
O=C(O)[C@@H]1CCN1c1ccc(Cc2cc3scnc3c(-c3cccc(Cl)c3)c2F)cn1 [BB-04, (S)-1-{5-[4-(3-chloro-phenyl)-5-fluoro-benzothiazol-6-ylmethyl]-pyridin-2-yl}-azetidine-2-carboxylic acid]	< 5	< 5
Cc1nc2c(-c3cccc(Cl)c3)cc(Cc3ccc(N4CC[C@@H]4C(=O)O)nc3)cc2s1 [BB-09, (R)-1-{5-[4-(3-chloro-phenyl)-2-methyl-benzothiazol-6-ylmethyl]-pyridin-2-yl}-azetidine-2-carboxylic acid]	< 5	< 5
O=C(O)[C@@H]1CCCN1c1ccc(Cc2cc3scnc3c(-c3cccc(Cl)c3)c2F)cn1 [BB-03, (S)-1-{5-[4-(3-chloro-phenyl)-5-fluoro-benzothiazol-6-ylmethyl]-pyridin-2-yl}-pyrrolidine-2-carboxylic acid]	< 5	< 5
O=C(O)[C@H]1CCN1c1ccc(Cc2cc3scnc3c(-c3cccc(Cl)c3)c2F)cn1 [BB-05, (R)-1-{5-[4-(3-chloro-phenyl)-5-fluoro-benzothiazol-6-ylmethyl]-pyridin-2-yl}-azetidine-2-carboxylic acid]	< 5	< 5
Cc1nc2c(-c3cccc(Cl)c3)cc(Cc3ccc(N4CC[C@H]4C(=O)O)nc3)cc2s1 [BB-08, (S)-1-{5-[4-(3-chloro-phenyl)-2-methyl-benzothiazol-6-ylmethyl]-pyridin-2-yl}-azetidine-2-carboxylic acid]	< 5	< 5
O=C(O)C1CCN1c1ccc(Cc2cc3scnc3c(-c3cccc(Cl)c3)c2F)cn1 (racemic) [BB-01, 1-{5-[4-(3-chloro-phenyl)-5-fluorobenzothiazol-6-ylmethyl]-pyridin-2-yl}-azetidine-2-carboxylic acid]	< 5	< 5
